Assay results: patent publication EP2970215B1, “PYRROLIDINE DERIVATIVES, PHARMACEUTICAL COMPOSITIONS CONTAINING THEM, AND THEIR USE IN THERAPY” (AbbVie Deutschland GmbH & Co. KG, priority 2013, dated 2014)
pKi: −log10 of the molar value.

What follows are compounds tested against T1, human GlyT1c transporter (Homo sapiens, UniProt P48067) (assay: Radioligand binding assay using recombinant CHO cell membranes expressing human GlyT1). Details: radioligand binding to human GlyT1c transporter-expressing membranes.
T1 construct: expressed in transfected cells; host or cells: CHO cells (recombinant; line hGlyT1c_5_CHO is named for the uptake assay)
T1 sequence (P48067 1-706): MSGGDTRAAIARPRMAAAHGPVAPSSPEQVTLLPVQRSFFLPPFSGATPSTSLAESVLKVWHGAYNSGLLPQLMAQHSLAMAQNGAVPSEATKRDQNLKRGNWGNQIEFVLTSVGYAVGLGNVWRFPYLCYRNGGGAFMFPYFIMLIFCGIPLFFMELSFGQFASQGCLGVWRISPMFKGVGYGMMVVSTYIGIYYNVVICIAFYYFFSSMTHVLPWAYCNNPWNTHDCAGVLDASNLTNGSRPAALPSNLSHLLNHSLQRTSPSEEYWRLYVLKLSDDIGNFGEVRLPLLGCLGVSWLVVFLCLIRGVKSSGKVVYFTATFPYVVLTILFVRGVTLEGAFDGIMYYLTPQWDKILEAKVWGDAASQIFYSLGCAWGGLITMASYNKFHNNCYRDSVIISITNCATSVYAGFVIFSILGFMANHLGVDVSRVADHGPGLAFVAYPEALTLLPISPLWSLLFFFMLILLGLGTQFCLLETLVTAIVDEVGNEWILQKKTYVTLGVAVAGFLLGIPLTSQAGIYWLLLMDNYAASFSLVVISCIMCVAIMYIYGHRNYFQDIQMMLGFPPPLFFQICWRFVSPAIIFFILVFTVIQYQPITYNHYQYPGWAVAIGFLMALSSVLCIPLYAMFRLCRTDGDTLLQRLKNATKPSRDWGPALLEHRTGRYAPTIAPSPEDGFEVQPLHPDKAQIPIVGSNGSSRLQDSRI
Source text: 2. Radioligand binding assays using recombinant CHO cell membranes expressing human GlyT1: […]

SMILES	pKi
CCCNC(=O)[C@@H]1CN(S(=O)(=O)c2cn(C)cn2)C[C@H]1c1ccc(F)cc1 [Example 580, (3S,4R)-4-(4-fluorophenyl)-1-[(1-methyl-1H-imidazol-4-yl)sulfonyl]-N-propylpyrrolidine-3-carboxamide]	≥ 6.00
Cn1cnc(S(=O)(=O)N2C[C@H](NCCO[Si](C)(C)C(C)(C)C)[C@@H](c3ccccc3)C2)c1 [Example 551, (3R,4S)-N-(2-{[tert-butyl(dimethyl)silyl]oxy}ethyl)-1-[(1-methyl-1H-imidazol-4-yl)sulfonyl]-4-phenylpyrrolidin-3-amine]	≥ 5.00
CCCNCCO[C@@H]1CN(S(=O)(=O)c2cn(C)cn2)C[C@H]1c1ccc(F)cc1 (relative stereo) [Example 688, N-[2-({Trans-4-(4-fluorophenyl)-1-[(1-methyl-1H-imidazol-4-yl)sulfonyl]pyrrolidin-3-yl}oxy)ethyl]propan-1-amine]	≥ 6.00
Cn1cnc(S(=O)(=O)N2CC(c3ccc(F)cc3)C(c3ccccc3Cl)C2)c1 (centres unmarked) [Example 339, 4-{[3-(2-chlorophenyl)-4-(4-fluorophenyl)pyrrolidin-1-yl]sulfonyl}-1-methyl-1H-imidazole]	≥ 5.00
Cc1cccc(N[C@@H]2CN(S(=O)(=O)c3cn(C)cn3)C[C@H]2c2ccccc2)c1 (relative stereo) [Example 58, trans-1-[(1-methyl-1H-imidazol-4-yl)sulfonyl]-N-(3-methylphenyl)-4-phenylpyrrolidin-3-amine]	≥ 7.00
Cn1cnc(S(=O)(=O)N2C[C@@H](C(=O)Nc3cccc(C#N)c3)[C@H](c3ccc(F)cc3)C2)c1 (relative stereo) [Example 347, Trans-N-(3-cyanophenyl)-4-(4-fluorophenyl)-1-[(1-methyl-1H-imidazol-4-yl)sulfonyl]pyrrolidine-3-carboxamide]	≥ 5.00
Cn1cnc(S(=O)(=O)N2C[C@H](NCc3nc(Br)cs3)[C@@H](c3ccccc3)C2)c1 [Example 472, (3R,4S)-N-[(4-bromo-1,3-thiazol-2-yl)methyl]-1-[(1-methyl-1H-imidazol-4-yl)sulfonyl]-4-phenylpyrrolidin-3-amine]	≥ 6.00
Cc1ccccc1-c1cc(N[C@H]2CN(S(=O)(=O)c3cn(C)cn3)C[C@@H]2c2ccc(F)cc2)ncn1 [Example 723, N-{(3R,4S)-4-(4-fluorophenyl)-1-[(1-methyl-1H-imidazol-4-yl)sulfonyl]pyrrolidin-3-yl}-6-(2-methylphenyl)pyrimidin-4-amine]	≥ 7.00
Cn1cnc(S(=O)(=O)N2C[C@@H](CNc3cccc(C(F)(F)F)c3)[C@H](c3ccc(F)cc3)C2)c1 (relative stereo) [Example 335, N-({Trans-4-(4-fluorophenyl)-1-[(1-methyl-1H-imidazol-4-yl)sulfonyl]pyrrolidin-3-yl}methyl)-3-(trifluoromethyl)aniline]	≥ 6.00
Cn1cnc(S(=O)(=O)N2C[C@H](NCc3ccc(Cl)s3)[C@@H](c3ccc(F)cc3)C2)c1 [Example 393, (3R,4S)-N-[(5-chlorothiophen-2-yl)methyl]-4-(4-fluorophenyl)-1-[(1-methyl-1H-imidazol-4-yl)sulfonyl]pyrrolidin-3-amine]	≥ 8.00
Cn1cnc(S(=O)(=O)N2C[C@@H](Nc3cccc(C(F)(F)F)c3F)[C@H](c3ccccc3)C2)c1 (relative stereo) [Example 222, trans-N-[2-fluoro-3-(trifluoromethyl)phenyl]-1-[(1-methyl-1H-imidazol-4-yl)sulfonyl]-4-phenylpyrrolidin-3-amine]	≥ 6.00
Cn1cnc(S(=O)(=O)N2C[C@@H](CNc3ccc(F)c(C(F)(F)F)c3)[C@H](c3ccc(F)cc3)C2)c1 (relative stereo) [Example 313, 4-fluoro-N-({trans-4-(4-fluorophenyl)-1-[(1-methyl-1H-imidazol-4-yl)sulfonyl]pyrrolidin-3-yl}methyl)-3-(trifluoromethyl)aniline]	≥ 6.00
Cn1cnc(S(=O)(=O)N2C[C@@H](Nc3ccc(F)cc3)[C@H](c3ccc(F)cc3)C2)c1 [Example 324, (3S,4R)-N,4-bis(4-fluorophenyl)-1-[(1-methyl-1H-imidazol-4-yl)sulfonyl]pyrrolidin-3-amine]	≥ 5.00
Cn1cnc(S(=O)(=O)N2C[C@H](NC(=O)Nc3ccccc3F)[C@@H](c3ccc(F)cc3)C2)c1 [Example 702, 1-(2-fluorophenyl)-3-{(3R,4S)-4-(4-fluorophenyl)-1-[(1-methyl-1H-imidazol-4-yl)sulfonyl]pyrrolidin-3-yl}urea]	≥ 5.00
